Patent publication US10968265B2, “Antibody-coupled cyclic peptide tyrosine tyrosine compounds as modulators of neuropeptide Y receptors” (Janssen Pharmaceutica NV, priority 2016, dated 2021)

Tests used:
[1] = Single dose, food intake and body weight in Sprague-Dawley rats; assay type: in vivo, rat; parameters: body weight change: unit not given here; conditions: single dose 0.3 nmol/kg s.c. (Dulaglutide); for absolute body weight: in g (unit assumed)
Procedure: Compound 1 was evaluated for its ability to reduce foot intake and body weight in Sprague-Dawley after a single dose. The animals were obtained from Charles River Labs (Wilmington, Mass.) at 200-225 g body weight and used within one week of delivery. They were housed one per cage on alpha dry bedding and a plastic tube for enrichment in a temperature-controlled room with 12-hour light/dark cycle. […] Animal weights were taken and recorded for each rat prior to dosing.
Body weights and food intake were measured 1, 2 and 3 days after dosing and the percentages of weight loss and reduction in food intake were calculated. […] All data are presented as the mean±SEM (Tables 18-20).

[2] = Weight loss in diet-induced obese mice: chronic dosing; assay type: in vivo, mouse; conditions: for body weight: 0.3 nmol/kg s.c. every day
Procedure: (§1) Compound 1 was evaluated for its ability to reduce foot intake and body weight and improve glucose homeostasis on repeat dosing in male DIO C57Bl/6 mice over a period of 8 days. Male DIO C57BL/6N mice (20 weeks of age, 14 weeks on high fat diet) were obtained from Taconic Laboratory. […] Animals were acclimated to the facility for at least one week prior to the start of the experiment.
(§2) The day prior to dosing, mice were grouped based on individual body weights. At 3:00-4:00 pm for each of the next 8 days, animals and food intake were weighed. […] After 8 days, mice are fasted for 5 hours and then given a 2 g/kg bolus of glucose orally at t=0. At t=0, 30, 60, 90, and 120 minutes post glucose challenge blood glucose is measured and at t=0, 30, and 90 minutes blood in drawn to measure plasma insulin. […] All data are presented as the mean±SEM (FIG. 7, FIG. 8, and Tables 8-11).

[3] = OGTT after 8 days of treatment in DIO mice; assay type: in vivo, mouse; conditions: 0.3 nmol/kg every day
Procedure: as §1, §2

Dulaglutide
body weight change ([1]; Day 0): 0.0 ± 0.0
daily food intake ([1]; Day 0): 26.6 ± 0.8
absolute body weight ([1]; Day 0): 270.3 ± 3.0
body weight change ([1]; Day 1): 10.6 ± 1.6
daily food intake ([1]; Day 1): 27.3 ± 1.2
absolute body weight ([1]; Day 1): 280.8 ± 4.2
body weight change ([1]; Day 2): 22.5 ± 0.8
daily food intake ([1]; Day 2): 30.0 ± 0.7
absolute body weight ([1]; Day 2): 292.47 ± 3.6
body weight change ([1]; Day 3): 28.7 ± 0.6
daily food intake ([1]; Day 3): 30.1 ± 0.7
absolute body weight ([1]; Day 3): 299.0 ± 3.3
body weight change ([1]; Day −1): −6.3 ± 0.8
absolute body weight ([1]; Day −1): 264.0 ± 3.1
Total Food Consumption ([1]; over three days): 87.4 ± 2.0
fed Blood Glucose ([2]; 0.3 nmol/kg every day, after 8 days of treatment): 114 ± 13 mg/dL
body weight ([2]; Day 0): 45.9 ± 0.6 g
body weight ([2]; Day 1): 44.1 ± 0.6 g
body weight ([2]; Day 2): 42.2 ± 0.6 g
body weight ([2]; Day 3): 40.6 ± 0.6 g
body weight ([2]; Day 4): 39.3 ± 0.6 g
body weight ([2]; Day 5): 38.1 ± 0.7 g
body weight ([2]; Day 6): 37.1 ± 0.8 g
body weight ([2]; Day 7): 36.4 ± 1.0 g
body weight ([2]; Day 8): 36.5 ± 1.1 g
body weight ([2]; Day −1): 46.3 ± 0.6 g
blood glucose (mg/dL) during OGTT ([3]; 0 min after glucose challenge): 76 ± 9 mg/dL
insulin (ng/mL) during OGTT ([3]; 0 min after glucose challenge): 0.6 ± 0.1 ng/mL
blood glucose (mg/dL) during OGTT ([3]; 30 min after glucose challenge): 151 ± 14 mg/dL
insulin (ng/mL) during OGTT ([3]; 30 min after glucose challenge): 1.7 ± 0.2 ng/mL
blood glucose (mg/dL) during OGTT ([3]; 60 min after glucose challenge): 174 ± 17 mg/dL
blood glucose (mg/dL) during OGTT ([3]; 90 min after glucose challenge): 104 ± 10 mg/dL
insulin (ng/mL) during OGTT ([3]; 90 min after glucose challenge): 0.7 ± 0.2 ng/mL
blood glucose (mg/dL) during OGTT ([3]; 120 min after glucose challenge): 119 ± 9 mg/dL
glucose Delta AUC (mg/dl/120 min) ([3]; OGTT): 6668 ± 1846 mg/dl/120 min
glucose Total AUC (mg/dl/120 min) ([3]; OGTT): 15758 ± 1054 mg/dl/120 min
